Test [1] concerns the target T1, P2Y12 receptor (Homo sapiens, UniProt Q9H244).
T1 construct: endogenous in cells; host or cells: human platelets (outdated from blood banks or fresh), apyrase-washed, whole
Description: platelet ADP receptor binding assay (ARB): inhibition of [3H]2-MeS-ADP binding to platelets. Particulars: [3H]2-MeS-ADP binding to apyrase-washed human platelets. In a few lines: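 Apyrase-washed human platelets (1×10^8 per well) were preincubated 5 min with serial compound dilutions in Hepes-Tyrode's/0.1% BSA/0.6% DMSO, then incubated 15 min at room temperature with 1 nM [3H]2-MeS-ADP. Filter-bound radioactivity gave specific binding (nonspecific: 10 μM 2-MeS-ADP), and IC50s came from non-linear regression.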

In test [2] the test system is human platelet-rich plasma (PRP). Description: PRP assay: inhibition of ADP-mediated platelet aggregation in vitro. Type of test: cell-based. Conditions: ADP-induced aggregation. On the procedure: The effect of testing the compound according to the invention on ADP-induced human platelet aggregation was assessed in a 96-well microtiter assay (see generally the procedures in Jantzen, H. M. et al. (1999) Thromb. Hemost. 81:111-117) or standard cuvette light transmittance aggregometry using either human platelet-rich plasma (PRP) or human washed platelets.
For preparation of human platelet-rich plasma for aggregation assays, human venous blood was collected from healthy, drug-free volunteers into 0.38% sodium citrate (0.013 M, pH 7.0 final). Platelet-rich plasma (PRP) is prepared by centrifugation of whole blood at 160×g for 20 minutes at room temperature. The PRP layer is removed, transferred to a new tube, and the platelet count is adjusted, if necessary, to achieve a platelet concentration of ˜3×10^8 platelets/ml using platelet-poor plasma (PPP). PPP is prepared by centrifugation of the remaining blood sample (after removal of PRP) for 20 minutes at 800×g. This preparation of PRP can subsequently be used for aggregation assays in either a 96-well plate or standard cuvette aggregometry.
For cuvette light transmittance aggregation assays, serial dilutions (1:3) of test compounds were prepared in 100% DMSO in a 96 well V-bottom plate (final DMSO concentration in the cuvette was 0.6%). The test compound (3 μl of serial dilutions in DMSO) was preincubated with PRP for 30-45 seconds prior to initiation of aggregation reactions, which were performed in a ChronoLog aggregometer by addition of agonist (5 or 10 μM ADP) to 490 μL of PRP at 37° C. In some cases, light transmittance aggregometry was performed using 490 μL of washed platelets (prepared as described above) at 37° C., and aggregation was initiated by addition of 5 μM ADP and 0.5 mg/ml human fibrinogen (American Diagnostics, Inc., Greenwich, Conn.). The aggregation reaction is recorded for ˜5 min, and maximum extent of aggregation is determined by the difference in extent of aggregation at baseline, compared to the maximum aggregation that occurs during the five minute period of the assay. Inhibition of aggregation was calculated as the maximum aggregation observed in the presence of inhibitor, compared to that in the absence of inhibitor. IC50s were derived by non-linear regression analysis using the Prism software (GraphPad, San Diego, Calif.).
Inhibition of ADP-dependent aggregation was also determined in 96-well flat-bottom microtiter plates using a microtiter plate shaker and plate reader similar to the procedure described by Frantantoni et al., Am. J. Clin. Pathol. 94, 613 (1990). All steps are performed at room temperature. For 96-well plate aggregation using platelet-rich plasma (PRP), the total reaction volume of 0.2 ml/well includes 180 μl of PRP (˜3×10^8 platelets/ml, see above), 6 μl of either serial dilution of test compounds in 20% DMSO or buffer (for control wells), and 10 μl of 20×ADP agonist solution (100 μM). The OD of the samples is then determined at 450 nm using a microtiter plate reader (Softmax, Molecular Devices, Menlo Park, Calif.) resulting in the 0 minute reading. The plates are then agitated for 5 min on a microtiter plate shaker and the 5 minute reading is obtained in the plate reader. Aggregation is calculated from the decrease of OD at 450 nm at t=5 minutes compared to t=0 minutes and is expressed as % of the decrease in the ADP control samples after correcting for changes in the unaggregated control samples. IC50s were derived by non-linear regression analysis.

T1 sequence (Q9H244 whole entry): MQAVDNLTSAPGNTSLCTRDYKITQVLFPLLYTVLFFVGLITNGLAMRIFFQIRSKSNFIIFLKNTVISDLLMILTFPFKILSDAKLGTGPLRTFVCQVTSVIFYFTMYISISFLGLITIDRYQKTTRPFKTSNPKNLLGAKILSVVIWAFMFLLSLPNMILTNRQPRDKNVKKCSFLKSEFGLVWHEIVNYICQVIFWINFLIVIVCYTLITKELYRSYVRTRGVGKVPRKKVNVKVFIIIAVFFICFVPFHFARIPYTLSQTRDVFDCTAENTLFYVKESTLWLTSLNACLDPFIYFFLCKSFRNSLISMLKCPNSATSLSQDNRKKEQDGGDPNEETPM

For the molecule `O=C(NC(C(=O)O)c1cccs1)c1ccc(-n2c(=O)[nH]c3cc(NCc4ccc(F)cc4)ccc3c2=O)cc1` (stereo not shown) [Compound 2, 2-(4-(7-(4-fluorobenzylamino)-2,4-dioxo-1,2-dihydroquinazolin-3(4H)-yl)benzamido)-2-(thiophen-2-yl)acetic acid], the half-inhibitory concentration (IC50) – broadly, the midpoint of a concentration-inhibition curve – in test [1] is 0.05 to 0.5 µM; in test [2] (Homo sapiens, Platelet), greater than 30 µM.
In the case of `CNc1cc2c(cc1F)C(=O)N(c1ccc(C(=O)NC(c3nnn(C)n3)c3ccc(Cl)s3)cc1)CO2` (stereo not shown) [Compound 74, N-((5-chlorothiophen-2-yl)(2-methyl-2H-tetrazol-5-yl)methyl)-4-(6-fluoro-7-(methylamino)-4-oxo-2H-benzo[e][1,3]oxazin-3(4H)-yl)benzamide], the half-maximal inhibitory concentration (IC50) in test [1] was 0.05 to 0.5 µM; in test [2] (Homo sapiens, Platelet), greater than 30 µM.
For `CNc1cc2[nH]c(=O)n(-c3ccc(C(=O)NC(c4noc(=S)[nH]4)c4ccc(Cl)s4)cc3)c(=O)c2cc1F` (stereo not shown) [Compound 32, N-((5-chlorothiophen-2-yl)(5-thioxo-4,5-dihydro-1,2,4-oxadiazol-3-yl)methyl)-4-(6-fluoro-7-(methylamino)-2,4-dioxo-1,2-dihydroquinazolin-3(4H)-yl)benzamide], the IC50 in test [1] is 0.05 to 0.5 µM; in test [2] (Homo sapiens, Platelet), less than 10 µM.
Take `CNc1cc2[nH]c(=O)n(-c3ccc(C(=O)N[C@H](c4noc(=O)[nH]4)c4ccc(Cl)s4)cc3)c(=O)c2cc1F` [Compound 46, (R)-N-((5-chlorothiophen-2-yl)(5-oxo-4,5-dihydro-1,2,4-oxadiazol-3-yl)methyl)-4-(6-fluoro-7-(methylamino)-2,4-dioxo-1,2-dihydroquinazolin-3(4H)-yl)benzamide]: the half-inhibitory concentration (IC50) was in the range of 0.05 to 0.5 µM in test [1] and 10 to 30 µM in test [2] (Homo sapiens, Platelet).
Regarding `CNc1cc2[nH]c(=O)n(-c3ccc(C(=O)NC(CC(=O)O)c4ccc(Cl)s4)cc3)c(=O)c2cc1F` (stereo not shown) [Compound 27, 3-(5-chlorothiophen-2-yl)-3-(4-(6-fluoro-7-(methylamino)-2,4-dioxo-1,2-dihydroquinazolin-3(4H)-yl)benzamido)propanoic acid], the IC50 in test [1] is 0.05 to 0.5 µM; in test [2] (Homo sapiens, Platelet) it was greater than 30 µM.
Turning to `CNc1cc2[nH]c(=O)n(-c3ccc(C(=O)NC(C(=O)O)c4ccc(Cl)s4)cc3)c(=O)c2cc1F` (stereo not shown) [Compound 5, 2-(5-chlorothiophen-2-yl)-2-(4-(6-fluoro-7-(methylamino)-2,4-dioxo-1,2-dihydroquinazolin-3(4H)-yl)benzamido)acetic acid], the results for the IC50 in test [1] and in test [2] were less than 0.05 µM and 10 to 30 µM, respectively.
`O=C(NCc1ccc(Cl)s1)c1ccc(-n2c(=O)[nH]c3cc(NCc4ccc(F)cc4)ccc3c2=O)cc1` [Compound 1, N-((5-chlorothiophen-2-yl)methyl)-4-(7-(4-fluorobenzylamino)-2,4-dioxo-1,2-dihydroquinazolin-3(4H)-yl)benzamide]: the half-maximal inhibitory concentration (IC50) was 0.05 to 0.5 µM in test [1] and greater than 30 µM in test [2] (Homo sapiens, Platelet).
Regarding `CNc1cc2c(cc1F)C(=O)N(c1ccc(C(=O)NC(c3ccc(Cl)s3)c3nccs3)cc1)CO2` (stereo not shown) [Compound 82, N-((5-chlorothiophen-2-yl)(thiazol-2-yl)methyl)-4-(6-fluoro-7-(methylamino)-4-oxo-2H-benzo[e][1,3]oxazin-3(4H)-yl)benzamide], the IC50 is 0.05 to 0.5 µM in test [1] and greater than 30 µM in test [2] (Homo sapiens, Platelet).
On to `CNc1cc2[nH]c(=O)n(-c3cccc(C(=O)NC(C(=O)O)c4ccc(Cl)s4)c3)c(=O)c2cc1F` (stereo not shown) [Compound 111, 2-(5-chlorothiophen-2-yl)-2-(3-(6-fluoro-7-(methylamino)-2,4-dioxo-1,2-dihydroquinazolin-3(4H)-yl)benzamido)acetic acid], for which the IC50 in test [1] was greater than 0.5 µM.
Turning to `NC(=O)c1cn(-c2ccc(C(=O)NC(C(=O)O)c3ccc(Cl)s3)cc2)c(=O)c2ccccc12` (stereo not shown) [Compound 99], the 50% inhibitory concentration (IC50) in test [1] was greater than 0.5 µM.
`CNc1cc2[nH]c(=O)n(-c3ccc(C(=O)NC(C(=O)O)c4ccc(Cl)s4)c(OC)c3)c(=O)c2cc1F` (stereo not shown) [Compound 42, 2-(5-chlorothiophen-2-yl)-2-(4-(6-fluoro-7-(methylamino)-2,4-dioxo-1,2-dihydroquinazolin-3(4H)-yl)-2-methoxybenzamido)acetic acid]: in test [1], the IC50 was greater than 0.5 µM.
Still for that read-out and setting: the result for `O=C(NC(C(=O)O)c1ccc(Cl)s1)c1ccc(-n2c(=O)[nH]c3ccccc3c2=O)cc1` (stereo not shown) [Compound 33, 2-(5-chlorothiophen-2-yl)-2-(4-(2,4-dioxo-1,2-dihydroquinazolin-3(4H)-yl)benzamido)acetic acid] reads greater than 0.5 µM; that for `CNc1cc2[nH]c(=O)n(-c3ccc(CN(CC(=O)O)C(=O)c4ccc(Cl)s4)cc3)c(=O)c2cc1F` [Compound 103, 2-(5-chloro-N-(4-(6-fluoro-7-(methylamino)-2,4-dioxo-1,2-dihydroquinazolin-3(4H)-yl)benzyl)thiophene-2-carboxamido)acetic acid], greater than 0.5 µM; that for `CCOC(=O)C(NC(=O)c1ccc(-n2c(=O)[nH]c3cc(NC)c(F)cc3c2=O)cc1)c1ccc(Cl)s1` (stereo not shown) [Compound 26, ethyl 2-(5-chlorothiophen-2-yl)-2-(4-(6-fluoro-7-(methylamino)-2,4-dioxo-1,2-dihydroquinazolin-3(4H)-yl)benzamido)acetate], greater than 0.5 µM.
The same measure, in the same setting: the result for `CNc1cc2[nH]c(=O)n(-c3ccc(C(=O)NC(C(=O)O)c4cccs4)cc3)c(=O)c2cc1F` (stereo not shown) [Compound 8, 2-(4-(6-fluoro-7-(methylamino)-2,4-dioxo-1,2-dihydroquinazolin-3(4H)-yl)benzamido)-2-(thiophen-2-yl)acetic acid] reads greater than 0.5 µM; that for `CNc1cc2c(=O)n(-c3ccc(C(=O)NC(c4nnn[nH]4)c4ccc(Cl)s4)cc3)c(=O)[nH]c2cc1F` (stereo not shown) [Compound 49, N-((5-chlorothiophen-2-yl)(1H-tetrazol-5-yl)methyl)-4-(7-fluoro-6-(methylamino)-2,4-dioxo-1,2-dihydroquinazolin-3(4H)-yl)benzamide], greater than 0.5 µM.
On the same count and under the same terms, the result for `O=C(NC(C(=O)O)c1ccc(Cl)s1)c1ccc(N2COc3cc(NCc4ccc(F)cc4)ccc3C2=O)cc1` (stereo not shown) [Compound 84, 2-(5-chlorothiophen-2-yl)-2-(4-(7-(4-fluorobenzylamino)-4-oxo-2H-benzo[e][1,3]oxazin-3(4H)-yl)benzamido)acetic acid] reads greater than 0.5 µM.
The molecule `CNc1cc2[nH]c(=O)n(-c3cc(C(=O)NC(C(=O)O)c4ccc(Cl)s4)cs3)c(=O)c2cc1F` (stereo not shown) [Compound 113, 2-(5-chlorothiophen-2-yl)-2-(5-(6-fluoro-7-(methylamino)-2,4-dioxo-1,2-dihydroquinazolin-3(4H)-yl)thiophene-3-carboxamido)acetic acid] had an IC50 in test [1] greater than 0.5 µM.
For the molecule `CNc1cc2[nH]c(=O)n(-c3ccc(C(=O)NC(c4cccc(F)c4)c4nnn[nH]4)cc3)c(=O)c2cc1F` (stereo not shown) [Compound 24, 4-(6-fluoro-7-(methylamino)-2,4-dioxo-1,2-dihydroquinazolin-3(4H)-yl)-N-((3-fluorophenyl)(1H-tetrazol-5-yl)methyl)benzamide], in test [1], the IC50 is greater than 0.5 µM.
Same read-out and setting: the result for `CNc1cc2[nH]c(=O)n(-c3ccc(C(=O)NC(c4ccc(Cl)c(Cl)c4)c4nnn[nH]4)cc3)c(=O)c2cc1F` (stereo not shown) [Compound 29, N-((3,4-dichlorophenyl)(1H-tetrazol-5-yl)methyl)-4-(6-fluoro-7-(methylamino)-2,4-dioxo-1,2-dihydroquinazolin-3(4H)-yl)benzamide] reads greater than 0.5 µM.

For the origin of these results see patent US7834023B2 (Portola Pharmaceuticals, Inc., priority 2006, dated 2010).
